According to patent US20240391882A1 (Mirati Therapeutics, Inc., priority 2023, published 2024):
Where two headings read alike, the source gives them in different places.

How the values were obtained:
Format in all cases: cell-based
[1] = tested on: pAKT in T47D (PI3Kα H1047R mutant) cells; experiment: Inhibition of pAKT (alphaLISA Surefire Ultra AKT 1/2/3 pS473) in T47D cells; settings: Homo sapiens, read-out: T47D (H1047R) pAKT 24 hr (IC50)
Procedure, shortened: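 AlphaLISA read-out of AKT pS473 in lysates after roughly 24 h compound exposure at 37° C in HBSS. Ten concentrations, 1:4 dilutions from a 10.4 μm top dose. Percent of control uses alpelisib at 3.125 μm as background and DMSO as vehicle; four-parameter curve gives IC50.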

[2] = tested on: T47D (PI3Kα H1047R mutant) cells; experiment: Cell viability (CellTiter-Glo 2.0) in T47D cells; settings: Homo sapiens, approximately 72 hours
Procedure, shortened: (§1)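 IC50 values derive from four-parameter fits of CellTiter-Glo luminescence expressed as percent of vehicle control. Cells (T47D or SKBR3) were plated at 1000/well the day before dosing and incubated about 72 h at 37° C with a 10-point, 1:4 series starting at 10 μm.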

[3] = tested on: SKBR3 (PI3Kα wild type) cells; experiment: Cell viability (CellTiter-Glo 2.0) in SKBR3 cells; settings: Homo sapiens
Procedure, shortened: as §1

[4] = T47D (PI3Kα H1047R mutant) cells, 24 hr compound incubation, alphaLISA pS473
[5] = SK-BR-3, SKBR3 (PI3Kα wild type) cells, approximately 72 hours, CellTiter-Glo 2.0, read-out: SKBR3 (WT) Viability IC50
[6] = SK-BR-3, 72 h, read-out: SKBR3 (WT) Viability IC50 (nM)

IC50 [1, 4] | IC50 ([2]; T47D, 72 h) | IC50 [3, 5] | Structure (SMILES) | IC50 ([1]; T47D, 24 h) | IC50 [2] | IC50 [3, 6]
9.5 nM | 170 nM | > 10000 nM | Cc1cc([C@@H](C)Nc2ccccc2C(=O)O)c2nc(N3CCC(F)(F)CC3)c(C#N)nc2c1 [Example 3, (R)-2-((1-(2-cyano-3-(4,4-difluoropiperidin-1-yl)-7-methylquinoxalin-5-yl)ethyl)amino)benzoate] |  |  | 
844 nM | 9330 nM | > 10000 nM | Cc1cc([C@H](C)Nc2ccccc2C(=O)O)c2nc(N3CCC(F)(F)CC3)c(C#N)nc2c1 [Example 4, (S)-2-((1-(2-cyano-3-(4,4-difluoropiperidin-1-yl)-7-methylquinoxalin-5-yl)ethyl)amino)benzoate] |  |  | 
0.5 nM | 32.1 nM | > 10000 nM | Cc1cc([C@@H](C)Nc2ccc(Cl)nc2C(=O)O)c2nc(N3CC4C(C3)C4(F)F)c(C#N)nc2c1 (stereo partly drawn) [Example 21, 6-chloro-3-(((1R)-1-(2-cyano-3-(6,6-difluoro-3-azabicyclo[3.1.0]hexan-3-yl)-7-methylquinoxalin-5-yl)ethyl)amino)picolinic acid] |  |  | 
1.9 nM | 79.3 nM | 5320 nM | Cc1cc([C@@H](C)Nc2ccc(Cl)nc2C(=O)O)c2nc(N3CCC4(CC4)C(F)(F)C3)c(C#N)nc2c1 [Example 22, (R)-6-chloro-3-((1-(2-cyano-3-(4,4-difluoro-6-azaspiro[2.5]octan-6-yl)-7-methylquinoxalin-5-yl)ethyl)amino)picolinic acid] |  |  | 
1.8 nM | 51.5 nM | 9800 nM | C[C@@H](Nc1ccc(Cl)nc1C(=O)O)c1cc(F)cc2nc(C#N)c(N3CCC(F)(F)CC3)nc12 [Example 26, (R)-6-chloro-3-((1-(2-cyano-3-(4,4-difluoropiperidin-1-yl)-7-fluoroquinoxalin-5-yl)ethyl)amino)picolinic acid] |  |  | 
4.3 nM | 91.4 nM | 7430 nM | C[C@@H](Nc1ccc(Cl)nc1C(=O)O)c1cc(C2CC2)cc2nc(C#N)c(N3CCC(F)(F)CC3)nc12 [Example 33, (R)-6-chloro-3-((1-(2-cyano-7-cyclopropyl-3-(4,4-difluoropiperidin-1-yl)quinoxalin-5-yl)ethyl)amino)picolinic acid] |  |  | 
6.2 nM | 48.2 nM | > 10000 nM | C[C@@H](Nc1ccc(Cl)nc1C(=O)O)c1cc(Cl)cc2nc(C#N)c(N3CCC(F)(F)CC3)nc12 [Example 34, (R)-6-chloro-3-((1-(7-chloro-2-cyano-3-(4,4-difluoropiperidin-1-yl)quinoxalin-5-yl)ethyl)amino)picolinic acid] |  |  | 
3.1 nM | 166 nM | 8290 nM | Cc1cc([C@@H](C)Nc2ccc(Cl)nc2C(=O)O)c2nc(N3CCC(F)(F)CC3)c(C)nc2c1 [Example 35, (R)-6-chloro-3-((1-(3-(4,4-difluoropiperidin-1-yl)-2,7-dimethylquinoxalin-5-yl)ethyl)amino)picolinic acid] |  |  | 
93.7 nM | 1170 nM | > 10000 nM | Cc1cc([C@@H](C)Nc2ccccc2C(=O)O)c2nc(N3CCC(F)(F)CC3)c(C)nc2c1 [Example 36, (R)-2-((1-(3-(4,4-difluoropiperidin-1-yl)-2,7-dimethylquinoxalin-5-yl)ethyl)amino)benzoic acid] |  |  | 

More lines, now with the values behind:

Structure (SMILES) | IC50 [1, 4] | IC50 ([2]; T47D, 72 h) | IC50 [3, 5] | IC50 ([1]; T47D, 24 h) | IC50 [2] | IC50 [3, 6]
Cc1cc(C(C)Nc2ccccc2C(=O)O)c2nc(N3Cc4ccccc4C3)c(C#N)nc2c1 (stereo not drawn) [Example 2, 2-((1-(2-cyano-3-(isoindolin-2-yl)-7-methylquinoxalin-5-yl)ethyl)amino)benzoic acid] | 18.2 nM | 631 nM | > 10000 nM |  |  | 
Cc1cc([C@@H](C)Nc2ccc(Cl)nc2C(=O)O)c2nc(N3CCC(F)(F)CC3)c(C#N)nc2c1 [Example 5, (R)-6-chloro-3-((1-(2-cyano-3-(4,4-difluoropiperidin-1-yl)-7-methylquinoxalin-5-yl)ethyl)amino)picolinic acid] |  |  |  | 0.8 nM | 37.3 nM | 3970 nM
Cc1cc([C@@H](C)Nc2ccccc2C(=O)O)c2nc(N3Cc4ccccc4C3)c(C#N)nc2c1 [Example 6, (R)-2-((1-(2-cyano-3-(isoindolin-2-yl)-7-methylquinoxalin-5-yl)ethyl)amino)benzoic acid] |  |  |  | 5 nM | 294 nM | > 10000 nM
Cc1cc([C@@H](C)Nc2ccc(Cl)nc2C(=O)O)c2nc(N3CC4CC(C3)C4(F)F)c(C#N)nc2c1 [Example 7, 6-chloro-3-(((1R)-1-(2-cyano-3-(6,6-difluoro-3-azabicyclo[3.1.1]heptan-3-yl)-7-methylquinoxalin-5-yl)ethyl)amino)picolinic acid] | 0.8 nM | 59.8 nM | > 10000 nM |  |  | 
Cc1cc([C@@H](C)Nc2ccc(Cl)nc2C(=O)O)c2nc(NCC3(F)CC3)c(C#N)nc2c1 [Example 23, (R)-6-chloro-3-((1-(2-cyano-3-(((1-fluorocyclopropyl)methyl)amino)-7-methylquinoxalin-5-yl)ethyl)amino)picolinic acid] | 0.7 nM | 61.9 nM | > 10000 nM |  |  | 
Cc1cc([C@@H](C)Nc2ccc(Cl)nc2C(=O)O)c2nc(N3Cc4ccc(F)cc4C3)c(C#N)nc2c1 [Example 24, (R)-6-chloro-3-((1-(2-cyano-3-(5-fluoroisoindolin-2-yl)-7-methylquinoxalin-5-yl)ethyl)amino)picolinic acid] | 1.3 nM | 44.2 nM | > 10000 nM |  |  | 
Cc1cc([C@@H](C)Nc2ccc(Cl)nc2C(=O)O)c2nc(NCC3CC3)c(C#N)nc2c1 [Example 25, (R)-6-chloro-3-((1-(2-cyano-3-((cyclopropylmethyl)amino)-7-methylquinoxalin-5-yl)ethyl)amino)picolinic acid] | 1.2 nM | 175 nM | > 10000 nM |  |  | 
C[C@H](Nc1ccccc1C(=O)O)c1cc(C#N)cc2nc(C#N)c(N3CCC(F)(F)CC3)nc12 [Example 27, (S)-2-((1-(2,7-dicyano-3-(4,4-difluoropiperidin-1-yl)quinoxalin-5-yl)ethyl)amino)benzoic acid] | 1140 nM | > 10000 nM | > 10000 nM |  |  | 
C[C@@H](Nc1ccccc1C(=O)O)c1cc(C#N)cc2nc(C#N)c(N3CCC(F)(F)CC3)nc12 [Example 28, (R)-2-((1-(2,7-dicyano-3-(4,4-difluoropiperidin-1-yl)quinoxalin-5-yl)ethyl)amino)benzoic acid] | 48.3 nM | 2140 nM | > 10000 nM |  |  | 
C[C@H](Nc1ccccc1C(=O)O)c1cc(Cl)cc2nc(C#N)c(N3CCC(F)(F)CC3)nc12 [Example 29, (S)-2-((1-(7-chloro-2-cyano-3-(4,4-difluoropiperidin-1-yl)quinoxalin-5-yl)ethyl)amino)benzoic acid] | 117 nM | 3480 nM | > 10000 nM |  |  | 
C[C@@H](Nc1ccccc1C(=O)O)c1cc(Cl)cc2nc(C#N)c(N3CCC(F)(F)CC3)nc12 [Example 30, (R)-2-((1-(7-chloro-2-cyano-3-(4,4-difluoropiperidin-1-yl)quinoxalin-5-yl)ethyl)amino)benzoic acid] | 4.7 nM | 183 nM | > 10000 nM |  |  | 
C[C@H](Nc1ccccc1C(=O)O)c1cc(F)cc2nc(C#N)c(N3CCC(F)(F)CC3)nc12 [Example 31, (S)-2-((1-(2-cyano-3-(4,4-difluoropiperidin-1-yl)-7-fluoroquinoxalin-5-yl)ethyl)amino)benzoic acid] | 561 nM | > 10000 nM | > 10000 nM |  |  | 
C[C@@H](Nc1ccccc1C(=O)O)c1cc(F)cc2nc(C#N)c(N3CCC(F)(F)CC3)nc12 [Example 32, (R)-2-((1-(2-cyano-3-(4,4-difluoropiperidin-1-yl)-7-fluoroquinoxalin-5-yl)ethyl)amino)benzoic acid] | 10.2 nM | 265 nM | > 10000 nM |  |  | 
C[C@@H](Nc1ccccc1C(=O)O)c1cc(C2CC2)cc2nc(C#N)c(N3CCC(F)(F)CC3)nc12 [Example 37, (R)-2-((1-(2-cyano-7-cyclopropyl-3-(4,4-difluoropiperidin-1-yl)quinoxalin-5-yl)ethyl)amino)benzoic acid] | 94.6 nM | 588 nM | > 10000 nM |  |  | 
Cc1cc([C@@H](C)Nc2ccc(Cl)nc2C(=O)O)c2nc(C3CC3)c(C#N)nc2c1 [Example 44, (R)-6-chloro-3-((1-(2-cyano-3-cyclopropyl-7-methylquinoxalin-5-yl)ethyl)amino)picolinic acid] | 2 nM | 157 nM | > 10000 nM |  |  | 
Cc1cc([C@@H](C)Nc2ccc(Cl)nc2C(=O)O)c2nc(N3CCCC(C(F)(F)F)C3)c(C#N)nc2c1 (stereo partly drawn) [Example 45, 6-chloro-3-(((1R)-1-(2-cyano-7-methyl-3-(3-(trifluoromethyl)piperidin-1-yl)quinoxalin-5-yl)ethyl)amino)picolinic acid] | 6.8 nM | 115 nM | > 10000 nM |  |  | 
Cc1cc([C@@H](C)Nc2ccccc2C(=O)O)c2nc(N3CC(C)(C)C3)c(C#N)nc2c1 [Example 55, (R)-2-((1-(2-cyano-3-(3,3-dimethylazetidin-1-yl)-7-methylquinoxalin-5-yl)ethyl)amino)benzoic acid] | 21.6 nM | 422 nM | > 10000 nM |  |  | 
